Experimental data reported in ChEMBL document CHEMBL1799989 (Bioorg Med Chem Lett, 2011).
Values joined by “and” are separate entries in the source; they are usually repeats but may differ in a detail not shown here. Identical values can stand only once.

How the values were obtained:
[1] = target: Mitogen-activated protein kinase 14 (Homo sapiens, UniProt Q16539); assay: Inhibition of p38alpha assessed as phosphorylation FITC-labeled Hsp27 after 60 mins by fluorescence based cascade assay
[2] = (§1) Metabolic stability in rat liver microsomes assessed as compound remaining at 2 uM after 45 mins by LC/MS analysis in presence of NADPH; type: ADME, Microsome; conditions: liver microsomes, read-out: Stability
[3] = system: PBMC; assay: Antiinflammatory activity in human PBMC assessed as inhibition of LPS-induced TNFalpha release pretreated for 1 hr before LPS treatment measured after 18 hrs; type: functional, cell-based
[4] = (§2) Metabolic stability in human liver microsomes assessed as compound remaining at 2 uM after 45 mins by LC/MS analysis in presence of NADPH; type: ADME, Microsome; conditions: liver microsomes, read-out: Stability
[5] = system: Rattus norvegicus; assay: Antiinflammatory activity in fasted Lewis rat assessed as inhibition of LPS-induced TNFalpha production at 5 mg/kg, po administered 4 hrs prior LPS challenge measured after 90 mins by ELISA; type: functional; conditions: for inhibition in vivo at 5 mg/kg: Rattus norvegicus, Lewis, po
[6] = system: Rattus norvegicus; assay: Antiarthritic activity in Lewis rat assessed as inhibition of streptococcal cell wall-induced paw swelling at 10 mg/kg/day, po administered on day 10 of streptococcal cell wall challenge continued until day 21 by plethysmometer; type: functional
[7] = system: Rattus norvegicus; assay: Antiarthritic activity in Lewis rat assessed as inhibition of streptococcal cell wall-induced paw swelling at 60 mg/kg/day, po administered on day 10 of streptococcal cell wall challenge continued until day 21 by plethysmometer; type: functional
[8] = system: Rattus norvegicus; assay: Antiarthritic activity in Lewis rat assessed as inhibition of streptococcal cell wall-induced paw swelling at 30 mg/kg/day, po administered on day 10 of streptococcal cell wall challenge continued until day 21 by plethysmometer; type: functional
[9] = system: Liver microsomes; assay: as §1; type: ADME, Microsome; conditions: microsomes, 0.75 h, 2 µM
[10] = system: Liver microsomes; assay: as §2; type: ADME, Microsome; conditions: microsomes, 0.75 h, 2 µM
[11] = system: Rattus norvegicus; assay: Antiarthritic activity in Lewis rat assessed as inhibition of streptococcal cell wall-induced paw swelling at 2 mg/kg/day, po administered on day 10 of streptococcal cell wall challenge continued until day 21 by plethysmometer; type: functional
[12] = Solubility of the compound in phosphate buffer at pH 7; type: physicochemical
[13] = Apparent permeability across apical to basolateral side in human Caco2 cells at 1 uM; type: ADME, cell-based; conditions: Caco-2
[14] = Apparent permeability across apical to basolateral side in human Caco2 cells at 100 uM; type: ADME, cell-based; conditions: Caco-2
[15] = Half life in Sprague-Dawley rat administered as crystalline form; type: ADME, organism-based; conditions: in vivo
[16] = Half life in Beagle dog administered as crystalline form; type: ADME, organism-based, Canis lupus familiaris; conditions: in vivo
[17] = Half life in cynomolgus monkey administered as crystalline form; type: ADME, organism-based, Macaca fascicularis; conditions: in vivo
[18] = Oral bioavailability in cynomolgus monkey administered as crystalline form; type: ADME, organism-based, Macaca fascicularis; conditions: in vivo
[19] = Oral bioavailability in Sprague-Dawley rat administered as crystalline form; type: ADME, organism-based; conditions: in vivo
[20] = Oral bioavailability in cynomolgus monkey administered as solution; type: ADME, organism-based, Macaca fascicularis; conditions: in vivo
[21] = Oral bioavailability in Beagle dog administered as solution; type: ADME, organism-based, Canis lupus familiaris; conditions: in vivo
[22] = Oral bioavailability in Sprague-Dawley rat at 15 mg/kg administered as solution; type: ADME, organism-based; conditions: in vivo
[23] = Oral bioavailability in Sprague-Dawley rat at 2 mg/kg administered as solution; type: ADME, organism-based; conditions: in vivo

Sequence of Mitogen-activated protein kinase 14 (Q16539 whole entry): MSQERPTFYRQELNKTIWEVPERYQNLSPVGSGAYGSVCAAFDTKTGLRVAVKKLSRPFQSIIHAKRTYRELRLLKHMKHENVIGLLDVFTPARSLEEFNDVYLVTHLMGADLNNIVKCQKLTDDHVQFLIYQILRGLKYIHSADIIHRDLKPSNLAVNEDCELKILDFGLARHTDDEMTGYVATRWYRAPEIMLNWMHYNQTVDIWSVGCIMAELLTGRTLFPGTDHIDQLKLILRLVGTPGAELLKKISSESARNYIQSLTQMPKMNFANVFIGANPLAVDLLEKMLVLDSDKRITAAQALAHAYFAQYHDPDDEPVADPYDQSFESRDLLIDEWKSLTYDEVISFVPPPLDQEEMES

| SMILES | IC50 [1] [nM] | remaining at 0.75 h, 2 µM [2] [%] | IC50 ([3]; Homo sapiens, PBMC) [nM] | remaining at 0.75 h, 2 µM [4] [%] | inhibition in vivo at 5 mg/kg [5] [%] | also measured |
| --- | --- | --- | --- | --- | --- | --- |
| Cc1ccc(C(N)=O)cc1-n1c(C)cc(OCc2ccc(F)cc2F)c(Br)c1=O | 2 | 100 | 2.5 | 84 | 98 | inhibition in vivo at 10 mg/kg/day [6]: 87% |
| Cc1ccc(C(=O)N(C)C)cc1-n1c(C)cc(OCc2ccc(F)cc2F)c(Br)c1=O | 9.5 | 71 | 28.5 | 75 | 96 | inhibition in vivo at 60 mg/kg/day [7]: 74% |
| CNC(=O)c1ccc(-n2c(C)cc(OCc3ccc(F)cc3F)c(Br)c2=O)c(C)c1 | 34 | 86 | 156 | 93 | 54 |  |
| CNC(=O)c1cccc(-n2c(C)cc(OCc3ccc(F)cc3F)c(Br)c2=O)c1C | 48.5 | 91 | 193 | 89 | 61 |  |
| CNC(=O)c1ccc(F)c(-n2c(C)cc(OCc3ccc(F)cc3F)c(Br)c2=O)c1 | 8.5 |  | 46 |  | 83 |  |
| CNC(=O)c1ccc(Cl)c(-n2c(C)cc(OCc3ccc(F)cc3F)c(Br)c2=O)c1 | 3 |  | 18 |  | 89 | inhibition in vivo at 30 mg/kg/day [8]: 90% |
| CNC(=O)c1ccc(OC)c(-n2c(C)cc(OCc3ccc(F)cc3F)c(Br)c2=O)c1 | 21 |  | 107 |  | 20 |  |
| CNC(=O)c1ccc(C(=O)O)c(-n2c(C)cc(OCc3ccc(F)cc3F)c(Br)c2=O)c1 | > 10000 |  | > 25000 |  |  |  |
| CNC(=O)c1ccc(CO)c(-n2c(C)cc(OCc3ccc(F)cc3F)c(Br)c2=O)c1 | 325 |  |  |  |  |  |
| CNC(=O)c1ccc(C)c(-n2c(CO)cc(OCc3ccc(F)cc3F)c(Br)c2=O)c1 | 4 |  | 16 |  | 1 |  |
| CNC(=O)c1ccc(C)c(-n2c(C)cc(OCc3ccc(F)cc3F)c(Br)c2=O)c1 [PH-797804] |  | 95 |  | 91 |  | Stability [9]: 100%; IC50 ([3]; pbmc): 15 nM and 3.4 nM; Stability [10]: 98% and 92%; inhibition (INH) ([5]; 5 mg/kg): 95% and 38%; inhibition in vivo at 2 mg/kg/day [11]: 80%; solubility [12]: < 5 µg/mL; Papp A→B at 1 µM [13]: 10 ×10⁻⁶ cm/s; Papp A→B at 100 µM [14]: 25 ×10⁻⁶ cm/s; half-life [15]: 156 min; half-life [16]: 684 min; half-life [17]: 236 min; bioavailability [18]: 23.2%; bioavailability [19]: 35.7%; bioavailability [20]: 36.2%; bioavailability [21]: 59.6%; bioavailability [22]: 80.4%; bioavailability [23]: > 100% |
